Experimental data: paper PMC4250329 (Bioorganic & medicinal chemistry letters, 2014)
Entries after “also recorded” stand apart in the source; their conditions may differ. Read-outs that look alike come from different tables or passages of the source. Each block holds one compound with its values, some of them ahead of it.

Experiments:
[1] = test system: IFNγ-induced activation of the STAT1 pathway; experiment: HCS of IFNγ-induced STAT1 pathway activation; details: for inhibition at 50 µM: read-out: inhibition of IFNγ-induced STAT1 activation
[2] = test system: IL-6-induced STAT3 tyrosine phosphorylation and nuclear translocation; experiment: High content screen; type: cell-based; details: for activity (STAT3) / selectivity against pSTAT1: summary of Table 3; for SI (STAT1/STAT3), selectivity index ratio: Table 3
[3] = test system: JAK1; experiment: Western blot of pJAK1/JAK1; type: cell-based; details: Western blot analysis
[4] = test system: JAK2; experiment: Western blot of pJAK2/JAK2; type: cell-based; details: Western blot analysis
[5] = test system: four HNSCC cell lines (CAL33, FADU, 686 LN, OSC19); experiment: Anti-proliferative activity in panel of HNSCC cell lines; type: cell-based
[6] = test system: panel of >80 kinases; experiment: Kinase panel; type: biochemical; details: data not shown
[7] = read-out: anti-proliferative activity

Compound: CCOc1ccc2c(C)nc(NC3=NC(C)=CC(C)(C)N3)nc2c1 [11d]
inhibition at 50 µM [1]: < 50%

Compound: CCOc1ccc2nc(Nc3nc(=O)cc(C)[nH]3)nc(C)c2c1 [19e]
activity (STAT3) [2]: completely abolished activity

activity against a panel of >80 kinases [6]: did not exhibit any significant activity
Compound: CCOc1ccc2nc(NC3=NC(C)=CC(C)(C)N3)nc(C)c2c1 [11a, 6-ethoxy-4-methylquinazoline-2-amino-dihydro-trimethylpyrimidine]
effects on pJAK1/JAK1 [3]: no effects; also recorded: did not show any effects
effects on pJAK2/JAK2 [4]: no effects; also recorded: did not show any effects
IC50 ([5]; read-out: anti-proliferative activities IC50's): 17 to 37 µM
effect on IFNγ-induced activation of the STAT1 pathway ([1]; at 50 μM): no effect
inhibition at 50 µM [1]: < 50%

Compound: CC1=CC(C)(C)N=C(Nc2nc(C)c3cc(C)ccc3n2)N1 [11b]
improved potency compared to the original hit 11a ([2]; STAT3, text b9): 4 fold
potency against STAT3 ([2]; summary b20): low-micromolar potency
IC50 [5, 7]: 1 to 50 µM
inhibition at 50 µM [1]: < 50%

Compound: CC1=CC(C)(C)N=C(Nc2nc(C)c3cc(C)cc(C)c3n2)N1 [11c]
potency against STAT3 ([2]; summary b20): low-micromolar potency
improvement in STAT3 inhibition ([2]; versus 11a): 20 fold
IC50 [5, 7]: 1 to 50 µM

Compound: Cc1cc2nc(Nc3nc(=O)c(C)c(C)[nH]3)nc(C)c2cc1C [19n]
selectivity against pSTAT1 [2]: ≥ 3 fold

Compound: Cc1nc(Nc2nc(=O)cc(-c3ccccc3)[nH]2)nc2cc3c(cc12)OCO3 [19q]
SI (STAT1/STAT3), selectivity index ratio [2]: >3

Compound: Cc1cc(C)c2nc(Nc3nc(C)c(C)c(O)n3)nc(C)c2c1 [19b]
SI (STAT1/STAT3), selectivity index ratio [2]: >7
selectivity against pSTAT1 [2]: ≥ 3 fold

Compound: CC(C)(C)c1nc2c3ccc(F)cc3c3c(=O)[nH]ccc3c2[nH]1 [compound 6, reference compound]
potency against STAT3 [2]: nanomolar potencies
potency against STAT1 [1]: nanomolar potencies

Compound: Cc1[nH]c(Nc2nc(C)c3cc4c(cc3n2)OCO4)nc(=O)c1C [19p]
activity (STAT3) [2]: completely abolished activity
